Results on ten compounds are retold here after ChEMBL document CHEMBL1201862, “PubChem BioAssay data set” (2004).

One experiment addresses Tumor necrosis factor (Homo sapiens, UniProt P01375). Briefly: analog potency on TNFa NF-kB signaling – cell-based, revised, SAR follow-up (AID 2337). It counts as functional.
The subject of experiment [1] is HEK293. Nature of the experiment: cells. The settings on record: Homo sapiens.
Experiment [2] deals with Nucleotide-binding oligomerization domain-containing protein 2 (Homo sapiens, UniProt Q9HC29). Nature of the experiment: PubChem AID 2334. It counts as functional.
Nucleotide-binding oligomerization domain-containing protein 2, sequence (Q9HC29 whole entry, the tested form may be a part): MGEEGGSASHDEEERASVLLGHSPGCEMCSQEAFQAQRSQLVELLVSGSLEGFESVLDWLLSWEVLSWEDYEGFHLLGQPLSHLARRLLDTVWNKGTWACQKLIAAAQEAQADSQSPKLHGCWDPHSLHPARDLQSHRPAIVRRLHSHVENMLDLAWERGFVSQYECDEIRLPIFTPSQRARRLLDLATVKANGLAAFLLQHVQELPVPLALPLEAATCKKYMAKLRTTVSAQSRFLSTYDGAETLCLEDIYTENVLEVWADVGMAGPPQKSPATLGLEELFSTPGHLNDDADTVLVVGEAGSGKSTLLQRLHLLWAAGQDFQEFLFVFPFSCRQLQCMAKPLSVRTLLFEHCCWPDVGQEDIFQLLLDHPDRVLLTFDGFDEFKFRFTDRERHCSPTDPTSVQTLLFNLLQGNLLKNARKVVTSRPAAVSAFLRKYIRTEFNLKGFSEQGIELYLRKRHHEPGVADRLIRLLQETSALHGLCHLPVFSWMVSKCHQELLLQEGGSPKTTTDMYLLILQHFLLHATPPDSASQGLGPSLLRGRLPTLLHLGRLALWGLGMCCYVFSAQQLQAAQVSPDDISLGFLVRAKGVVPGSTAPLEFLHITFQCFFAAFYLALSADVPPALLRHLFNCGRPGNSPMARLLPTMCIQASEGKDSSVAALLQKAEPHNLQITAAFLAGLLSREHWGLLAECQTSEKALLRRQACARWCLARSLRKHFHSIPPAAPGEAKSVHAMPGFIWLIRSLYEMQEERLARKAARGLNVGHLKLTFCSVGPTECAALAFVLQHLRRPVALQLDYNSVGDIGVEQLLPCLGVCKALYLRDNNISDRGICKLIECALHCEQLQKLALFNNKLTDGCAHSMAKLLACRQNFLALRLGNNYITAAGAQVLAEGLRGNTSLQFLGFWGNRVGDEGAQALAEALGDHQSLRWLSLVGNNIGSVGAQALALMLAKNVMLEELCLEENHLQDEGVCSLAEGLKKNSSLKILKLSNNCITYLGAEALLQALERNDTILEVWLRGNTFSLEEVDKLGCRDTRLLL
The target in experiment [3] is T1, Nucleotide-binding oligomerization domain-containing protein 1 (Homo sapiens, UniProt Q9Y239).
T1 sequence (Q9Y239 whole entry): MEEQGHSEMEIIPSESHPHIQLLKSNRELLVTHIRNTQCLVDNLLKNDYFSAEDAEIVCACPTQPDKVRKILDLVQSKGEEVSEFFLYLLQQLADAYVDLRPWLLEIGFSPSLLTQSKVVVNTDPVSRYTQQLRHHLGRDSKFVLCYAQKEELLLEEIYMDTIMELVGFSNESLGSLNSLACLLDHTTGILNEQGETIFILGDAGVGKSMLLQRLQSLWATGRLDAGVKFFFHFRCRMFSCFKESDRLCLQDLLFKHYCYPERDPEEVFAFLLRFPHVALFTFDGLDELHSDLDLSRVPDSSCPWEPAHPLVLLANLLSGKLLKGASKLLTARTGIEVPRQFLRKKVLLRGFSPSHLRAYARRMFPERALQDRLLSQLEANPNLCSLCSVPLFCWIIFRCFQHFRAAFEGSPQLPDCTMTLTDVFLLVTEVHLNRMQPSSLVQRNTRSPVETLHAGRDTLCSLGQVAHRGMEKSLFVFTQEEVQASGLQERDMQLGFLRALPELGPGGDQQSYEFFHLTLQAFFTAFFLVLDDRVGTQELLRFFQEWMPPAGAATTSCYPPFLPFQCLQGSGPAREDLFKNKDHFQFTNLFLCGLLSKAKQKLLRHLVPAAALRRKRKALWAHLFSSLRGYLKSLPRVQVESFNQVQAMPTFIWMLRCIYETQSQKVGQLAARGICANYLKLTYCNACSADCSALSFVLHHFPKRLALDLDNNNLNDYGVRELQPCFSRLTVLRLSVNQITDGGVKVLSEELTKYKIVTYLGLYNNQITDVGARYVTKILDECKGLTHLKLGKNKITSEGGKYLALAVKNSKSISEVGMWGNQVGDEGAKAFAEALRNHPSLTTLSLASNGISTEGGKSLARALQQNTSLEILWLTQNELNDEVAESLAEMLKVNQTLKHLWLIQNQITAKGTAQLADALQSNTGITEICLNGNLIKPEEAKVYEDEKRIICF
Briefly: blockers of NOD1 pathway activity – revised, SAR follow-up (AID 2333). The class given is functional.

For the next experiment, the target named is T2, X-box-binding protein 1 (Homo sapiens, UniProt P17861).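 Note: confirmatory dose-response counter-screen serving a CHOP assay.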
T2 sequence (P17861 whole entry): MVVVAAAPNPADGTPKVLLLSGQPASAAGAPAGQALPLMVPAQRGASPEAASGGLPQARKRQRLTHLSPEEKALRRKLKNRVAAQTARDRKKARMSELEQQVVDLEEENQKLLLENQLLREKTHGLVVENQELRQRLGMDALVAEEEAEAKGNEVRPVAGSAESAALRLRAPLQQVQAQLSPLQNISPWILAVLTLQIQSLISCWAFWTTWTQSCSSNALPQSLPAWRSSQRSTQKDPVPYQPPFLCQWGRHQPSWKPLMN
The class given is functional, Cricetulus griseus.

The target in experiment [4] is G-protein coupled receptor 55 (Homo sapiens, UniProt Q9Y2T6). Nature of the experiment: selective activators of receptor GPR55 – imaging, U2OS cells, beta-arrestin-GFP redistribution, primary screen (AID 1961). It counts as functional.
G-protein coupled receptor 55, sequence (Q9Y2T6 whole entry): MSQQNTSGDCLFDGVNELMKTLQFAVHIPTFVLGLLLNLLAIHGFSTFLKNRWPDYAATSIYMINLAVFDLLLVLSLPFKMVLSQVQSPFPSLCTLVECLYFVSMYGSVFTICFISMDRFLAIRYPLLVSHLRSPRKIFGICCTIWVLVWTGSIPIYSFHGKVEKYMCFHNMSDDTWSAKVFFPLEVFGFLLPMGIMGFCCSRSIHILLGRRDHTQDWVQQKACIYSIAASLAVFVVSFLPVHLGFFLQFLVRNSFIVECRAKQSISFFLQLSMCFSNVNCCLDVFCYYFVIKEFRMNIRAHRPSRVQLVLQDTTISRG
In experiment [5] the target is T3, Heat shock factor protein 1 (Mus musculus, UniProt P38532).
T3 sequence (P38532 whole entry): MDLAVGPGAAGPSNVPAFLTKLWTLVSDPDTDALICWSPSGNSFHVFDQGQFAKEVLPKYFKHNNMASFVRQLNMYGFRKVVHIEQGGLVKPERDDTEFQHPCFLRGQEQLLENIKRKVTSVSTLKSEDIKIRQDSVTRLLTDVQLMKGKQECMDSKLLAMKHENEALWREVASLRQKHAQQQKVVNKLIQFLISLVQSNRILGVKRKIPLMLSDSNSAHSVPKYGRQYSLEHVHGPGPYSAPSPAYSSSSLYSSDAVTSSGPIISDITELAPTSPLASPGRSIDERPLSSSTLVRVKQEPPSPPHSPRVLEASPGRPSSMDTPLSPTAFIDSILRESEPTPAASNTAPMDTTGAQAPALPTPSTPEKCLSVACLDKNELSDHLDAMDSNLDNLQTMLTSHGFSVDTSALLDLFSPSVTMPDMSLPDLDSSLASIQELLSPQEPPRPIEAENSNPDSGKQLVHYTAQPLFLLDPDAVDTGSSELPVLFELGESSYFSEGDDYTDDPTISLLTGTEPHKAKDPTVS
Briefly: decrease of HSF1-responsive luciferase luminescence – cell-based, NIH3T3, dose retest, confirmation (AID 2382).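 Note: NIH3T3 fibroblasts with HSF1-driven luciferase reporter stressed by proteasome inhibitor MG132; luminescence from HSF1-driven luciferase expression after 8 hours of MG132 stress.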 The class given is functional.

Experiment [6] deals with HEK293. Briefly: EBV LMP1 TES2 canonical NF-kB signalling blockers – cell-based, HEK293, luciferase, cherry-pick, dose response (AID 588343). It counts as functional. To be noted: Homo sapiens.
For another experiment, the target named is T4, Estrogen receptor (Homo sapiens, UniProt P03372).
T4 sequence (P03372 whole entry): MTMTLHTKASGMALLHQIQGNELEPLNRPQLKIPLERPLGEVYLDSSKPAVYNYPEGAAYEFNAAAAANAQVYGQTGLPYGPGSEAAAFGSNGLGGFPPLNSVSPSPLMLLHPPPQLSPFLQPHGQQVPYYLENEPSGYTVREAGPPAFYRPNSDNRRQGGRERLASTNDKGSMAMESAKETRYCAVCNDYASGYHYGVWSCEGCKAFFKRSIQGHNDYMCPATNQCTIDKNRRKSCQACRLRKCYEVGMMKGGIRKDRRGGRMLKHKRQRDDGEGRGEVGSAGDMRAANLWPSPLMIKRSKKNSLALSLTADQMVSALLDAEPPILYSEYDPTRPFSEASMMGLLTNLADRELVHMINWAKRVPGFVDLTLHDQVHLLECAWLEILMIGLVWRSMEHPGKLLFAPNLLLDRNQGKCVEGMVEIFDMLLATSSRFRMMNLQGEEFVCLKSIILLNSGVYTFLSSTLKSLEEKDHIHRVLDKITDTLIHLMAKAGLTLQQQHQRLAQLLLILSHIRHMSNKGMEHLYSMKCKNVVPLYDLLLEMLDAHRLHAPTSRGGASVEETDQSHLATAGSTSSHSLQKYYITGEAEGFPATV

Experiment [7] in a line: IC50 of Artemis nuclease activity blockers – biochemical, fluorescence intensity, dose response (AID 720701).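 Note: Artemis endonuclease enzyme.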 It counts as functional.
For experiment [8], the target named is Protein-tyrosine kinase 2-beta (Homo sapiens, UniProt Q14289).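 Note: potency of inhibitors of PYK2 kinase phosphorylation of poly-GT substrate.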
Protein-tyrosine kinase 2-beta, sequence (Q14289 whole entry): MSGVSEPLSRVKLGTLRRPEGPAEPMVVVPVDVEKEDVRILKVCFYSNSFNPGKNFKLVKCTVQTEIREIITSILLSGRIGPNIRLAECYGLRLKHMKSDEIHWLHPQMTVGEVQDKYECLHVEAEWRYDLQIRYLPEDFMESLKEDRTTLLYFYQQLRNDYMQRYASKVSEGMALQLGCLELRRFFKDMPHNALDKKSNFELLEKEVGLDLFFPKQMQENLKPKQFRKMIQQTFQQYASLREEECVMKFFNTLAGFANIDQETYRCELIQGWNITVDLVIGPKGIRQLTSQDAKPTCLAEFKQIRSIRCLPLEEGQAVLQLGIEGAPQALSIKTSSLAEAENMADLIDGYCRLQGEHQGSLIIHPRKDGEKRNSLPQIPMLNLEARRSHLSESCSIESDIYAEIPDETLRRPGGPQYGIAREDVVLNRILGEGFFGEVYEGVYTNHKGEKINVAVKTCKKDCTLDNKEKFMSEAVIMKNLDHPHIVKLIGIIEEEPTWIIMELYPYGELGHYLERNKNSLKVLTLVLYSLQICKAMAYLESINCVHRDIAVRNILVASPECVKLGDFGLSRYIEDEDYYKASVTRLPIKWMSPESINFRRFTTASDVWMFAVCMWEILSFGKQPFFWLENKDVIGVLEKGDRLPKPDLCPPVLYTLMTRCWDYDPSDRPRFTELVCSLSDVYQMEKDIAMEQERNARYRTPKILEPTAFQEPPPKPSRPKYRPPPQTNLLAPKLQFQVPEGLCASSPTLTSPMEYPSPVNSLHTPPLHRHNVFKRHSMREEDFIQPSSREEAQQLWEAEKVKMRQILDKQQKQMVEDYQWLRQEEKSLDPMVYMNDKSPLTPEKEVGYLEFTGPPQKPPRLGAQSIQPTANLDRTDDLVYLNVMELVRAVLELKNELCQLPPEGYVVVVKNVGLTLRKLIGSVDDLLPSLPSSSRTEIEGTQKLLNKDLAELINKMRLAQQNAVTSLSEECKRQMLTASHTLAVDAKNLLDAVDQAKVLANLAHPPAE
Another experiment has as its target T5, Bcl-2-like protein 10 (Homo sapiens, UniProt Q9HD36).
T5 sequence (Q9HD36 whole entry): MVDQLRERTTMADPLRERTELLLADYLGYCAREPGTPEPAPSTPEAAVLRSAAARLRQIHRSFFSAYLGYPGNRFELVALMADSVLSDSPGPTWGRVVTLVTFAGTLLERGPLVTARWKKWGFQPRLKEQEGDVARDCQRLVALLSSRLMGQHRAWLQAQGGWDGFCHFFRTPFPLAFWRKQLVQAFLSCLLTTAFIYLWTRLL
Briefly: Bcl-B/TR3 peptide binding disruption – biochemical, fluorescence polarization, FITC-TR3 peptide, selectivity assay for Bfl-1 inhibitor project, primary screen (AID 748).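 Note: fluorescence polarization from a fluorescein-labelled TR3 peptide binding purified Bcl-B.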

The target of experiment [9] is T6, Estrogen receptor beta (Homo sapiens, UniProt Q92731). Briefly: blockers of SRC-3 recruitment to ERβ – biochemical, ELISA, streptavidin-HRP readout, orthogonal assay, confirmation (AID 1060). For orientation: ELISA stands for enzyme-linked immunosorbent assay.
T6 sequence (Q92731 whole entry): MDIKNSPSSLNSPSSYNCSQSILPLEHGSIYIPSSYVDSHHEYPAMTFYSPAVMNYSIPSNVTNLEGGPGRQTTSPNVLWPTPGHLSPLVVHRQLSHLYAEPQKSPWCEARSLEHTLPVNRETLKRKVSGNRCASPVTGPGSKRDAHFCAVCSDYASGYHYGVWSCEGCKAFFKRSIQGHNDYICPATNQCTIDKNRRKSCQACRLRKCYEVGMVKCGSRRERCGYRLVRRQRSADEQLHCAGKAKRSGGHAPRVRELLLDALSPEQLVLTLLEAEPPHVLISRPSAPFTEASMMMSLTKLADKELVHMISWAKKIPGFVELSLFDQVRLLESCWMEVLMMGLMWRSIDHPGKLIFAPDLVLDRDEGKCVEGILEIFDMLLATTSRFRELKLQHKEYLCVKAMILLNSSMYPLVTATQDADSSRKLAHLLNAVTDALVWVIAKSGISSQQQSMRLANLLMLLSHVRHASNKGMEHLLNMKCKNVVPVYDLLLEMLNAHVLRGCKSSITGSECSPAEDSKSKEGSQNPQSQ
The target in experiment [10] is T6, Estrogen receptor beta.

SMILES strings stand for the structures. Calls of active or inactive are those of the source.

Tumor necrosis factor, sequence (P01375 whole entry): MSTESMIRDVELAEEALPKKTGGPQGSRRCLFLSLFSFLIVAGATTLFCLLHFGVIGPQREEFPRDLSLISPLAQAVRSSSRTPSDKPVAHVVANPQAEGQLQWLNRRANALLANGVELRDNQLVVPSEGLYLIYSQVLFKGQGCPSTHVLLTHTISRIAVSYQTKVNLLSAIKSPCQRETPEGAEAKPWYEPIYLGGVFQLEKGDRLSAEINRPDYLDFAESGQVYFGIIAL

With `Cc1ccccc1C(=O)Nc1nc2ccccc2n1Cc1ccc(Cl)cc1`, the IC50 (at Tumor necrosis factor; with HEK293 [1]; in experiment [2]; in experiment [3]) was > 20 µM (inactive) each time.
With `Cc1ccc(/C=N/NC(=O)CSCc2ccc(Cl)cc2)cc1`, on X-box-binding protein 1, the “Absolute IC50 (XBP1)” value is 10 µM.
In the case of `CC(=O)OC(c1nc2ccccc2c(=O)n1C1CC2(OC1=O)c1ccccc1N1C(=O)C(C)(C)N(O)C12)C(C)C` (stereo unspecified), the EC50 (as a rule, the midpoint of the concentration-response curve) in experiment [4] was 7.35 µM (active).
With `O=C(C1CC1)N1CCc2cc(S(=O)(=O)N3CCN(c4ccc([N+](=O)[O-])cc4)CC3)ccc21`, the 50% inhibitory concentration (IC50) – broadly, the midpoint of a concentration-inhibition curve – at Tumor necrosis factor was 12.4 µM (active); with HEK293 [1], > 20 µM (inactive); in [2] it was 8.44 µM (active); in experiment [3] it was 6.5 µM (active).
In the case of `COc1ccc(CCNC(=O)c2nnn(-c3ccc4c(c3)OCCO4)c2N)cc1OC`, the EC50 in experiment [5] is 0.44 µM (active). In addition, in the experiment with HEK293 [6], the AC50 – broadly, the concentration giving half of the maximal activity seen – was 0.786 µM (active). At X-box-binding protein 1, the “Absolute IC50 (XBP1)” value stood at 10 µM.
Regarding `CN1/C(=C\C(=O)COC(=O)c2ccco2)C(C)(C)c2ccccc21`, the EC50 in experiment [4] is 5.59 µM (active).
On to `O=C(Nc1ccc(N2CCCC2)cc1)C(c1ccccc1)c1ccccc1`, for which the IC50 is 7.09 µM (active) at Estrogen receptor, > 20 µM (inactive) in experiment [7], 11.6 µM (not active) in experiment [8] and 18.9 µM (active) at Bcl-2-like protein 10.
In the case of `Cc1cccn2c(=O)c3cc(C(=O)NCC4CCCO4)c(=N)n(Cc4cccnc4)c3nc12` (stereo unspecified), on Bcl-2-like protein 10, the IC50 was > 25 µM (inactive).
With `O=C(COC(=O)CN1C(=O)c2ccccc2C1=O)Nc1ncc(Cl)cc1Cl`, the results for the IC50 at Bcl-2-like protein 10, at Estrogen receptor beta [9] and on Estrogen receptor beta [10] were 41.5 µM (active), < 77 µM (not active) and 11.1 µM (active), respectively.
Take `O=C(Nc1ccc(Cl)c(Cl)c1)c1ccc(CN2CCc3ccccc3C2)cc1`: the IC50 was > 20 µM (inactive) at Tumor necrosis factor, 8.89 µM (active) with HEK293 [1], > 20 µM (inactive) in [2] and 0.891 µM (active) in experiment [3].
